How the values were obtained:
[1] = Metabolic stability in human liver microsomes assessed as intrinsic clearance measured upto 30 mins in presence of NADPH by LC/MS/MS analysis; assay type: ADME, Microsome; settings: read-out: CLH
[2] = Lipophilicity, logD of the compound in octanol and phosphate buffer at pH 7.4 incubated for 4 hrs under shaking condition by liquid chromatography tandem mass spectrometry; assay type: physicochemical
[3] = biological target: Protein arginine N-methyltransferase 5 (Homo sapiens, UniProt O14744); assay: Inhibition of PRMT5 methyltransferase activity in human MTAP -/- Calu-6 cells assessed as reduction in SmB SDMA levels measured after 2 days by HTRF based assay; assay type: cell-based
[4] = Efflux ratio of apparent permeability across […] in MDCK-MDR1 incubated for 120 mins by LC-MS analysis; assay type: ADME, cell-based, Canis lupus familiaris; settings: dog, mdck-mdr1, 2 h

Chain of Protein arginine N-methyltransferase 5 (O14744 whole entry): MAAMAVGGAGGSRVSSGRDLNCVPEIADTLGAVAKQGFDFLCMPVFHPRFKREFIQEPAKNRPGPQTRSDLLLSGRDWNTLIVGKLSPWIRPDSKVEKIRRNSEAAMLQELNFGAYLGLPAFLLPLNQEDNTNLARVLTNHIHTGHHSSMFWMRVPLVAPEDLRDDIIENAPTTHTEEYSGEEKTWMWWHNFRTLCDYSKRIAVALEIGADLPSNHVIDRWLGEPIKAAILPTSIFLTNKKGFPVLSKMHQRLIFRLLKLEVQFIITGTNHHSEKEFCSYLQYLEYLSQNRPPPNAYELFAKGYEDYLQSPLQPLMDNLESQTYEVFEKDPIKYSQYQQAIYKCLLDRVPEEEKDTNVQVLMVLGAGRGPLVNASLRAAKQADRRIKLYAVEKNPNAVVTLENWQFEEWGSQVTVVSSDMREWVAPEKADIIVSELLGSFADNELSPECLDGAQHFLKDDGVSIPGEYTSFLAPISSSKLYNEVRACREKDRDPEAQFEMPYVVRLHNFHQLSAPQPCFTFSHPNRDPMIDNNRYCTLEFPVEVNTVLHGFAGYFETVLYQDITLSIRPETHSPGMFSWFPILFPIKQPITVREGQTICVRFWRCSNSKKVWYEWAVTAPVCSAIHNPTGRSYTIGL

| SMILES | microsomal CLint [1] | logD at 4 h [2] | IC50 [3] | Ratio [4] |
| --- | --- | --- | --- | --- |
| Cc1cc2ncc(Cn3c(C(=O)N(C)c4ccccc4)cn(C)c3=O)cc2nc1N | 36 µL/min/mg | 1.1 | 29 nM | – |
| Cc1cc2ccc(Cn3c(C(=O)N(C)c4ccccc4)cn(C)c3=O)cc2nc1N | 395 µL/min/mg | 1.6 | 2 nM | 35 |
| Cc1cc2ccc(Cn3c(C(=O)N(C)c4ccccc4)coc3=O)cc2nc1N | 240 µL/min/mg | 1.8 | 1 nM | 2 |
| Cc1cc2ccc(Cn3c(C(=O)N(C)c4ccccn4)nn(C)c3=O)cc2nc1N | < 25 µL/min/mg | 0.9 | 21 nM | 17 |
| Cc1cc2ccc(Cn3nccc3C(=O)N(C)c3ncccc3F)cc2nc1N | 89 µL/min/mg | 1.8 | 14 nM | 1 |
| Cc1cc2ccc(Cn3c(C(=O)N(C)c4ccccn4)cn(C)c3=O)cc2nc1N | 28 µL/min/mg | 0.8 | 9 nM | 14 |

Continued by falling IC50 [3], values first:

| microsomal CLint [1] | logD at 4 h [2] | IC50 [3] | Ratio [4] | SMILES |
| --- | --- | --- | --- | --- |
| 547 µL/min/mg | 2.1 | 50 nM | 3 | Cc1cc2ccc(Cn3nncc3C(=O)N(C)c3ccccc3)cc2nc1N |
| > 700 µL/min/mg | 2.9 | 49 nM | 1 | Cc1cc2ccc(Cn3c(C(=O)N(C)c4ccccc4)noc3=O)cc2nc1N |
| 299 µL/min/mg | 2.1 | 39 nM | 8 | Cc1cc2ccc(Cn3c(C(=O)N(C)c4ccccc4)nccc3=O)cc2nc1N |
| 422 µL/min/mg | 2 | 17 nM | 22 | Cc1cc2ccc(Cn3c(C(=O)N(C)c4ccccc4)cccc3=O)cc2nc1N |
| 97 µL/min/mg | 1.9 | 2 nM | 6 | Cc1cc2ccc(Cn3c(C(=O)N(C)c4ccccc4)nn(C)c3=O)cc2nc1N |

Source: ChEMBL document CHEMBL5126629, “Paradoxical Increase of Permeability and Lipophilicity with the Increasing Topological Polar Surface Area within a Series of PRMT5 Inhibitors” (J Med Chem, 2022)
